Data set [1] concerns Candida albicans strains 1-1, 3-1 and 4-1. Kind of data set: Anti-fungal/yeast microplate assay (MIC, resazurin). The class given is cell-based. Here is the method: (§1) The three strains of Candida albicans (C. albicans) used: 1-1, 3-1 and 4-1 were isolated from human blood, vagina and oropharynx, respectively. Cryptococcus neoformans (C. neoformans) strain CCTP13 was used. All strains were cultured in RPMI-1640 medium at 37° C. The copper sulfate and Cu# compositions started at a high concentration of 200 micrograms/milliliter, whilst the Cu—Zn# compositions started at a high concentrations of 1% of the stock solution (Table 2) and zinc sulfate and phosphorous acid started with a high concentrations equivalent to those in Cu—Zn#7 and #10 (see the legend of Table 1 for details) doubling dilutions (100 microliters) of the compositions were prepared in RPMI-1640 in a 96-well tissue culture plate. Overnight C. albicans and C. neoformans cultures were diluted 1:40 and 1:10 respectively with fresh RPMI containing 40 mM MOPS buffer and 90 microliters was added to the compositions in the plate. Resazurin A (10 microliters of a 0.0675% wt/vol solution in distilled water) was added as an indicator of growth, and the cultures were incubated at 37° C. for 24 hr. The minimum inhibitory concentration (MIC) of the compounds/compositions was defined as the lowest concentration at which the resazurin A indicator remained blue (living cells convert the blue dye to a pink color).

In data set [2] the test system is Staphylococcus aureus strain (S1). The experiment in a line: Agar plate test for antibacterial effect, area of inhibition. The class given is cell-based. Here is the method:
(§2) A 0.2 milliliter sample of the P. acnes culture was spread onto a 9 centimeter Petri dish containing BHI agar and allowed to dry.
(§3) The composition to be tested was either diluted with distilled water and 5 microliters was placed onto a 5 millimeter filter paper disc or was added to the Aloe vera-based gel (without preservatives) described above at various concentrations and a 5 microliter drop was placed onto the agar surface. The plates were then incubated at 37° C. for 24 hours (under anaerobic conditions for P. acnes), when the zones of inhibition (ZoI) were measured in millimeters) twice at a […] angle using a ruler and the average diameter (D) was calculated. The area of inhibition in mm^2 (AoI) was calculated using the formula: AoI=π×(D/2)^2.

Data set [3] has as its system Propionibacterium acnes strain ATCC 11828 (P. acnes). Kind of data set: Agar plate test for antibacterial effect, zone of inhibition. Type of data set: cell-based. The conditions noted are these: stock diluted 1:200 in distilled water (200 microgram/milliliter elemental copper for Cu# and copper sulfate), BHI agar, 24 hours anaerobic. As for the experimental part:
as §2, §3

The nature of data set [4]: pH of stock solutions and gel formulation. The following applies: stock solution. Type of data set: physicochemical.
Another data set relates to P. acnes. The experiment in a line: Bacterial microplate cultures (MIC). Type of data set: cell-based, Propionibacterium acnes. Here is the method: (§4) The aerobic bacterial strains Acinetobacter baumannii (A. baumannii), methicillin-resistant Staphylococcus aureus (MRSA) and Klebsiella pneumonia (K. pneumoniae) were isolated from swabs taken in a hospital ward. Escherichia coli (NCTC 9001; E. coli) is a clinical isolate from a patient's urinary bladder; all strains were cultured in RPMI-1640. Stock solutions of the compounds/compositions to be tested were diluted so that double dilutions in the microplate assays commenced at a 1% vol/vol concentration. Double dilutions of the compositions to be tested were prepared in RPMI-1640 in a 96-well tissue culture plate. The bacterial cultures were diluted 1:40 with fresh RPMI and added to the compositions. P. acnes was cultured as described in EXAMPLE 1 (Agar plate test methods) and a sample was diluted 1:100 with fresh BHI. Double dilutions of the compositions to be tested were prepared as described above in distilled water in a 96-well tissue culture plate (100 microliters) and 100 microliters of the diluted P. acnes culture was added. The plates were then incubated at 37° C. for 24 hours (under anaerobic conditions for P. acnes). The minimum inhibitory concentration (MIC) of the compositions was defined as the lowest concentration at which no visible bacterial growth was observed.

The subject of data set [5] is Acinetobacter baumannii (A. baumannii). Kind of data set: Bacterial microplate cultures (MIC). The following applies: RPMI-1640, 24 hours. Type of data set: cell-based. As for the experimental part:
as §4

In data set [6] the test system is Escherichia coli (NCTC 9001; E. coli). The experiment in a line: Bacterial microplate cultures (MIC). The conditions noted are these: RPMI-1640, 24 hours. Type of data set: cell-based. Here is the method:
as §4

The subject of data set [7] is Klebsiella pneumonia (K. pneumoniae). Kind of data set: Bacterial microplate cultures (MIC). The class given is cell-based. The conditions noted are these: RPMI-1640, 24 hours. As for the experimental part:
as §4

The subject of data set [8] is methicillin-resistant Staphylococcus aureus (MRSA). The experiment in a line: Bacterial microplate cultures (MIC). The class given is cell-based. The following applies: RPMI-1640, 24 hours. Here is the method:
as §4

Data set [9] concerns Aspergillus niger (A. niger). The experiment in a line: Anti-fungal assay with plant pathogenic fungi on PDA. The class given is cell-based. As for the experimental part: (§5) Chalara […] isolate 196/28 ([…]), Aspergillus niger (A. niger) and a strain isolated from powdery mildew (Pm; isolated from an apple leaf) were cultured on potato dextrose agar (PDA) at room temperature (around 22° C.). […] The plate was agitated to evenly distribute the test composition evenly through the agar (distilled water alone was used as control) and then the agar was allowed to set. […] To assess the effects of compositions on fungal growth, the diameter of the fungal hyphae was measured twice at a 90° angle using a ruler and the average diameter in millimeters was calculated. If no fungal growth could be detected by eye, the cultures were observed by phase microscopy (40×) to confirm that there was no growth (NG) as judged by visual examination.

The test system of data set [10] is Chalara fraxinea isolate 196/28 (C. fraxinea). Described as above. Type of data set: cell-based. Here is the method: as §5
Data set [11] relates to strain isolated from powdery mildew (Pm). Described as above. The following applies: 3 days of culture. Type of data set: cell-based, powdery mildew (isolated from an apple leaf). Here is the method:
as §5

For data set [12], the system named is Cryptococcus neoformans strain CCTP13. Kind of data set: Anti-fungal/yeast microplate assay (MIC, resazurin). The class given is cell-based. The following applies: C. neoformans. As for the experimental part: as §1
The next data set relates to A-431. Kind of data set: Cytotoxicity assay with a human squamous epithelial skin cell line (SRB assay). The following applies: confluent A-431, 24 hours, SRB (FIG. 4). For orientation: The SRB assay estimates cell density from bound dye.
Setting [13] is: C. albicans strain 1-1, copper-free controls, concentration of zinc sulfate or phosphorous acid.
Setting [14] is: C. albicans strain 3-1, copper-free controls, concentration of zinc sulfate or phosphorous acid.
Where [15] appears, read: C. albicans strain 4-1, copper-free controls, concentration of zinc sulfate or phosphorous acid.
[16] abbreviates: Experiment #1, 24 hours anaerobic.

Structures are written as SMILES. Marks after values point to notes of the source that are not given here.

Procedure for A-431: A-431 (ATCC) was cultured in RPMI-1640 medium supplemented with 10% fetal bovine serum and 2 mM L-glutamine (complete medium) in a humidified incubator at 37′C with a 5% CO2 in air atmosphere. For cytotoxicity experiments the cells were trypsinized, washed, counted and 2×10^4 cells were plated into the wells of flat-bottom 96-well plates in complete medium and cultured for 3 days until a confluent monolayer was formed. […] All test products were diluted in complete medium and then added in triplicate to the confluent A-431 cells which were then cultured for a further 24 hours when cytotoxicity/cell survival was quantitatively assessed using the sulforhodamine B (SRB) assay as described below.
The cells were washed twice with RPMI-1640 medium and then fixed with 10% trichloroacetic acid for 1 hour at 4° C. After washing twice with tap water, the cells were stained with SRB (0.4% w/v SRB in 1% acetic acid) for 30 min at room temperature. After washing twice with tap water the remaining stain was dissolved in 10 mM Tris base and the absorbance of the wells was measured on a Dynatech Multiplate ELISA reader at 540 nm. Percent cell survival was calculated by dividing the test product absorbance by control absorbance and multiplying by 100.

On to `OP(O)O` [Composition H3PO3, phosphorous acid], for which the MIC was over 500 µg/mL in [1] (setting [13]), over 500 µg/mL in [1] (setting [14]), over 500 µg/mL in data set [1] (setting [15]) and over 500 micrograms/milliliter in data set [1] (C. albicans strains).

`O=S(=O)([O-])[O-].[Cu+2]` [Copper sulfate, copper sulfate]: the “Area of inhibition (AoI)” value in data set [2] (dissolved in gel, 800 micrograms/milliliter, TSA, 24 hours (FIG. 1)) amounted to 28 mm^2. Further, the “Zone of Inhibition (mm)” value in data set [3] amounted to 13 mm. In addition, in [4], the “pH of stock solutions” value was found to be 3.4. For the same compound, the “MIC” value in the data set with P. acnes (setting [16]) worked out at 100 µg/mL; against P. acnes (Experiment #2, 24 hours anaerobic), 200 µg/mL; in data set [5], 6.3 microgram/milliliter; in data set [6] it was 100 microgram/milliliter; in data set [7], 50 microgram/milliliter; in data set [8], 12.5 microgram/milliliter. In addition, the “Diameter of fungal growth (mm)” value in data set [9] (12.5 μg/ml, Day 4) is listed as 15 mm; in data set [9] (12.5 μg/ml, Day 7), 17 mm; in data set [9] (12.5 μg/ml, Day 11) it was 18 mm; in data set [9] (37.5 μg/ml, Day 4), 13 mm; in data set [9] (37.5 μg/ml, Day 7), 16 mm; in data set [9] (37.5 μg/ml, Day 11) it was 18 mm. In addition, the “Diameter of fungal growth (mm)” value in [9] (125 μg/ml, Day 4, NG = no growth by phase microscopy) came to 7 mm; in data set [9] (125 μg/ml, Day 7, NG = no growth), 10 mm; in data set [9] (125 μg/ml, Day 11, NG = no growth), 15 mm; in data set [10] (3.75 μg/ml, Day 7), 14 mm; in [10] (3.75 μg/ml, Day 15), 20 mm; in data set [10] (12.5 μg/ml, Day 7), 14 mm. The “Diameter of fungal growth (mm)” value is given as 20 mm in [10] (12.5 μg/ml, Day 15); 13 mm in data set [10] (37.5 μg/ml, Day 7); 20** mm in data set [10] (37.5 μg/ml, Day 15, 20 mm = confluent); 10 mm in data set [10] (125 μg/ml, Day 7); 18 mm in [10] (125 μg/ml, Day 15); 17 mm in [11] (12.5 μg/ml). For the same compound, the “Diameter of fungal growth (mm)” value in [11] (37.5 μg/ml) is 17 mm; in data set [11] (125 μg/ml), 13 mm; in data set [11] (375 μg/ml, NG = no growth) it was 3* mm. The “MIC (μg/ml Cu^2+)” value in [1] (C. albicans strain 1-1, 24 hr) was found to be 6.3 μg/ml Cu^2+; in [1] (C. albicans strain 3-1, 24 hr) it was 6.3 μg/ml Cu^2+; in data set [1] (C. albicans strain 4-1, 24 hr) it was 6.3 μg/ml Cu^2+; in data set [12] (24 hr), 6.3 μg/ml Cu^2+. In addition, the “50% cytotoxic concentrations (CC50)” value with A-431 amounted to 50 micrograms/milliliter.

For `O=S(=O)([O-])[O-].[Zn+2]` [Zinc sulfate, zinc sulfate], the “effect on the growth of S1 (S. aureus)” value in data set [2] (alone in gel, 50-200 micrograms/milliliter (FIG. 2)) was “no effect”; in data set [2] (in gel, 100 micrograms/milliliter (FIG. 3)), “no effect”. The “MIC” value with P. acnes (setting [16]) was 25 µg/mL; in the data set with P. acnes (Table 5 experiment, varying Cu:Zn ratios) it was 50 µg/mL; in data set [1] (setting [13]), over 150 µg/mL; in [1] (setting [14]), over 150 µg/mL; in data set [1] (setting [15]) it was over 150 µg/mL; in data set [1] (C. albicans strains), over 150 micrograms/milliliter. The same compound came in with an MIC in [12] (copper-free control, concentration of zinc sulfate) of over 150 µg/mL.

These data come from patent US9474282B2, “Acid-solubilized copper-ammonium complexes and copper-zinc-ammonium complexes, compositions, preparations, methods, and uses” (priority 2013, dated 2016).
